Reference: US20080292619A1, “Pharmaceutical Composition Containing Meltrin Antagonist” (MOCHIDA PHARMACEUTICAL CO., LTD., priority 2004, published 2008)
In the oligonucleotide strings, read from the 5' end, every base follows the letter of its sugar. An asterisk marks phosphorothioate; unmarked linkages are phosphodiester. Other units and linkages are bracketed, terminal groups are in braces. A string of capitals states the bases alone. d = 2'-deoxy (DNA)

What follows are substances tested on human meltrin α RNA (assay: Suppression of human meltrin α expression by antisense compound in RD cell (real time PCR)). Settings: 50 nM; RD cell; corrected by GAPDH.
Assay type: cell-based
In short: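 RD cells transfected with heat-denatured antisense oligodeoxynucleotide plus Lipofectin in Opti-MEM for 4 h at 37° C, then cultured 18 h. Meltrin α RNA quantified by TaqMan RT-PCR against plasmid standard curve, GAPDH-corrected; suppression vs untreated cells, rated +/++/+++ for ≥30/50/70%.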

| Substance | suppression rate of expression, 50 nM |
| --- | --- |
| H142: gcctgcctaagtgcaggctt (GCCTGCCTAAGTGCAGGCTT; antisense; DNA, all phosphorothioate, methylation of C not given here) | ++ (“++” when the suppression rate was at least 50%) |
| H143 + 5: ggggtttggcttacaggtcc (GGGGTTTGGCTTACAGGTCC; antisense; DNA, all phosphorothioate, methylation of C not given here) | ++ (“++” when the suppression rate was at least 50%) |
| H143 + 9: gaggggggtttggcttacag (GAGGGGGGTTTGGCTTACAG; antisense; DNA, all phosphorothioate, methylation of C not given here) | + (“+” when the suppression rate was at least 30%) |
| H143 + 10: tgaggggggtttggcttaca (TGAGGGGGGTTTGGCTTACA; antisense; DNA, all phosphorothioate, methylation of C not given here) | + (“+” when the suppression rate was at least 30%) |
| H143 + 12: tctgaggggggtttggctta (TCTGAGGGGGGTTTGGCTTA; antisense; DNA, all phosphorothioate, methylation of C not given here) | + (“+” when the suppression rate was at least 30%) |
| H143 + 14: cttctgaggggggtttggct (CTTCTGAGGGGGGTTTGGCT; antisense; DNA, all phosphorothioate, methylation of C not given here) | + (“+” when the suppression rate was at least 30%) |
| H143: ttggcttacaggtcccctgg (TTGGCTTACAGGTCCCCTGG; antisense; DNA, all phosphorothioate, methylation of C not given here) | + (“+” when the suppression rate was at least 30%) |
| H144 + 5: gcaggcagaggcttctgagg (GCAGGCAGAGGCTTCTGAGG; antisense; DNA, all phosphorothioate, methylation of C not given here) | ++ (“++” when the suppression rate was at least 50%) |
| H144 + 6: tgcaggcagaggcttctgag (TGCAGGCAGAGGCTTCTGAG; antisense; DNA, all phosphorothioate, methylation of C not given here) | ++ (“++” when the suppression rate was at least 50%) |
| H144 + 7: ctgcaggcagaggcttctga (CTGCAGGCAGAGGCTTCTGA; antisense; DNA, all phosphorothioate, methylation of C not given here) | ++ (“++” when the suppression rate was at least 50%) |
| H144 + 8: tctgcaggcagaggcttctg (TCTGCAGGCAGAGGCTTCTG; antisense; DNA, all phosphorothioate, methylation of C not given here) | + (“+” when the suppression rate was at least 30%) |
| H144 + 9: atctgcaggcagaggcttct (ATCTGCAGGCAGAGGCTTCT; antisense; DNA, all phosphorothioate, methylation of C not given here) | + (“+” when the suppression rate was at least 30%) |
| H144 + 10: gatctgcaggcagaggcttc (GATCTGCAGGCAGAGGCTTC; antisense; DNA, all phosphorothioate, methylation of C not given here) | +++ (“+++” when the suppression rate was at least 70%) |
| H144 + 11: ggatctgcaggcagaggctt (GGATCTGCAGGCAGAGGCTT; antisense; DNA, all phosphorothioate, methylation of C not given here) | ++ (“++” when the suppression rate was at least 50%) |
| H144 + 12: aggatctgcaggcagaggct (AGGATCTGCAGGCAGAGGCT; antisense; DNA, all phosphorothioate, methylation of C not given here) | +++ (“+++” when the suppression rate was at least 70%) |
| H144 + 13: gaggatctgcaggcagaggc (GAGGATCTGCAGGCAGAGGC; antisense; DNA, all phosphorothioate, methylation of C not given here) | ++ (“++” when the suppression rate was at least 50%) |
| H144 + 14: agaggatctgcaggcagagg (AGAGGATCTGCAGGCAGAGG; antisense; DNA, all phosphorothioate, methylation of C not given here) | ++ (“++” when the suppression rate was at least 50%) |
| H144 + 15: cagaggatctgcaggcagag (CAGAGGATCTGCAGGCAGAG; antisense; DNA, all phosphorothioate, methylation of C not given here) | + (“+” when the suppression rate was at least 30%) |

| Substance | suppression rate of expression, 50 nM |
| --- | --- |
| H144 + 16: ccagaggatctgcaggcaga (CCAGAGGATCTGCAGGCAGA; antisense; DNA, all phosphorothioate, methylation of C not given here) | ++ (“++” when the suppression rate was at least 50%) |
| H144 + 17: gccagaggatctgcaggcag (GCCAGAGGATCTGCAGGCAG; antisense; DNA, all phosphorothioate, methylation of C not given here) | +++ (“+++” when the suppression rate was at least 70%) |
| H144 + 19: tggccagaggatctgcaggc (TGGCCAGAGGATCTGCAGGC; antisense; DNA, all phosphorothioate, methylation of C not given here) | +++ (“+++” when the suppression rate was at least 70%) |
| H144: cagaggcttctgaggggggt (CAGAGGCTTCTGAGGGGGGT; antisense; DNA, all phosphorothioate, methylation of C not given here) | + (“+” when the suppression rate was at least 30%) |
| H145 + 1: tctggccagaggatctgcag (TCTGGCCAGAGGATCTGCAG; antisense; DNA, all phosphorothioate, methylation of C not given here) | +++ (“+++” when the suppression rate was at least 70%) |
| H145 + 2: ttctggccagaggatctgca (dT*dT*dC*dT*dG*dG*dC*dC*dA*dG*dA*dG*dG*dA*dT*dC*dT*dG*dC*dA; antisense) | +++ (“+++” when the suppression rate was at least 70%) |
| H145 + 3: gttctggccagaggatctgc (dG*dT*dT*dC*dT*dG*dG*dC*dC*dA*dG*dA*dG*dG*dA*dT*dC*dT*dG*dC; antisense) | ++ (“++” when the suppression rate was at least 50%) |
| H145 + 4: tgttctggccagaggatctg (dT*dG*dT*dT*dC*dT*dG*dG*dC*dC*dA*dG*dA*dG*dG*dA*dT*dC*dT*dG; antisense) | ++ (“++” when the suppression rate was at least 50%) |
| H145 + 5: ttgttctggccagaggatct (dT*dT*dG*dT*dT*dC*dT*dG*dG*dC*dC*dA*dG*dA*dG*dG*dA*dT*dC*dT; antisense) | +++ (“+++” when the suppression rate was at least 70%) |
| H145 + 10: ccgagttgttctggccagag (dC*dC*dG*dA*dG*dT*dT*dG*dT*dT*dC*dT*dG*dG*dC*dC*dA*dG*dA*dG; antisense) | ++ (“++” when the suppression rate was at least 50%) |
| H145: ctggccagaggatctgcagg (CTGGCCAGAGGATCTGCAGG; antisense; DNA, all phosphorothioate, methylation of C not given here) | +++ (“+++” when the suppression rate was at least 70%) |
| H146 + 10: ctggccaaggcatgagtgag (dC*dT*dG*dG*dC*dC*dA*dA*dG*dG*dC*dA*dT*dG*dA*dG*dT*dG*dA*dG; antisense) | + (“+” when the suppression rate was at least 30%) |
| H146: catgagtgagccgagttgtt (dC*dA*dT*dG*dA*dG*dT*dG*dA*dG*dC*dC*dG*dA*dG*dT*dT*dG*dT*dT; antisense) | + (“+” when the suppression rate was at least 30%) |
| H147: tcctggggtcctggccaagg (dT*dC*dC*dT*dG*dG*dG*dG*dT*dC*dC*dT*dG*dG*dC*dC*dA*dA*dG*dG; antisense) | ++ (“++” when the suppression rate was at least 50%) |
| H148 + 5: ccaggcggagcccagtctcc (dC*dC*dA*dG*dG*dC*dG*dG*dA*dG*dC*dC*dC*dA*dG*dT*dC*dT*dC*dC; antisense) | + (“+” when the suppression rate was at least 30%) |
| H148 + 10: gggtgccaggcggagcccag (dG*dG*dG*dT*dG*dC*dC*dA*dG*dG*dC*dG*dG*dA*dG*dC*dC*dC*dA*dG; antisense) | ++ (“++” when the suppression rate was at least 50%) |
| H148: cggagcccagtctcccattg (dC*dG*dG*dA*dG*dC*dC*dC*dA*dG*dT*dC*dT*dC*dC*dC*dA*dT*dT*dG; antisense) | + (“+” when the suppression rate was at least 30%) |
| H149 + 10: tattgtggagcaggtctgag (dT*dA*dT*dT*dG*dT*dG*dG*dA*dG*dC*dA*dG*dG*dT*dC*dT*dG*dA*dG; antisense) | + (“+” when the suppression rate was at least 30%) |

Same assay, conditions: 200 nM; RD cell; corrected by GAPDH

| Substance | suppression rate of expression, 200 nM |
| --- | --- |
| H142: gcctgcctaagtgcaggctt (GCCTGCCTAAGTGCAGGCTT; antisense; DNA, all phosphorothioate, methylation of C not given here) | ++ (“++” when the suppression rate was at least 50%) |
| H143: ttggcttacaggtcccctgg (TTGGCTTACAGGTCCCCTGG; antisense; DNA, all phosphorothioate, methylation of C not given here) | +++ (“+++” when the suppression rate was at least 70%) |
| H144: cagaggcttctgaggggggt (CAGAGGCTTCTGAGGGGGGT; antisense; DNA, all phosphorothioate, methylation of C not given here) | ++ (“++” when the suppression rate was at least 50%) |
| H145: ctggccagaggatctgcagg (CTGGCCAGAGGATCTGCAGG; antisense; DNA, all phosphorothioate, methylation of C not given here) | +++ (“+++” when the suppression rate was at least 70%) |
| H146: catgagtgagccgagttgtt (dC*dA*dT*dG*dA*dG*dT*dG*dA*dG*dC*dC*dG*dA*dG*dT*dT*dG*dT*dT; antisense) | ++ (“++” when the suppression rate was at least 50%) |
| H147: tcctggggtcctggccaagg (dT*dC*dC*dT*dG*dG*dG*dG*dT*dC*dC*dT*dG*dG*dC*dC*dA*dA*dG*dG; antisense) | +++ (“+++” when the suppression rate was at least 70%) |
| H148: cggagcccagtctcccattg (dC*dG*dG*dA*dG*dC*dC*dC*dA*dG*dT*dC*dT*dC*dC*dC*dA*dT*dT*dG; antisense) | ++ (“++” when the suppression rate was at least 50%) |
